Experimental data taken from PMC3124791 (2011).

Molecular target: BACE-1 (β-secretase) (Homo sapiens, UniProt P56817)
Assay: cell-free chemoluminescent BACE-1 activity assay
Assay type: biochemical

Sequence of BACE-1 (β-secretase) (P56817 46-457): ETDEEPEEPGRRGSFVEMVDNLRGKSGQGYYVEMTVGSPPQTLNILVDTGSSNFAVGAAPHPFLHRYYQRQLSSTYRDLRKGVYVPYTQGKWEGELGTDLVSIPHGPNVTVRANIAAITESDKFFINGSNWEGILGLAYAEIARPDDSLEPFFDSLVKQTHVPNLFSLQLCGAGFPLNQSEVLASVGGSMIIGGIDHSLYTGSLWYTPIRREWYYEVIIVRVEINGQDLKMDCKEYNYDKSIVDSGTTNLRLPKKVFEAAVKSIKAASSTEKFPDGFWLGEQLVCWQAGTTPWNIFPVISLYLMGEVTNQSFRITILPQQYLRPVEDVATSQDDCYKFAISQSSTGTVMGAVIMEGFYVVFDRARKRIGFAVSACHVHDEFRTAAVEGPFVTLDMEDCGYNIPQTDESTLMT

O=c1c(O)c(-c2ccc(O)cc2)oc2cc(O)cc(O)c12 [kaempferol, 3,5,7-Trihydroxy-2-(4-hydroxyphenyl)-4H-1-benzopyran-4-one]
IC50: 27.7 µM

O=c1cc(-c2ccc(O)cc2)oc2cc(O)cc(O)c12 [apigenin, 4',5,7-Trihydroxyflavone]
IC50: 34.2 µM
